The values that follow are results of earlier work, collected in PMC12195648 (Pharmaceuticals, 2025).

SMILES strings stand for the structures.

For the first series, the system named is Bcr-Abl. The settings on record: 58-purine 3D-QSAR database, Table S3; cited from earlier work.
Turning to `CN1CCN(c2ccc(Nc3nc(Nc4ccc(F)c(F)c4)c4ncn(CC5CC5)c4n3)cc2F)CC1` [Compound 10], the “pIC50 Exp” value is listed as 6.237. Turning to `CN1CCN(c2ccc(Nc3nc(Nc4ccc(F)c(F)c4)c4ncn(CC5CC5)c4n3)cc2)CC1` [Compound 4], the “pIC50 Exp” value is listed as 7.398.

As to `CN1CCN(c2ccc(Nc3nc(Nc4ccc(C#N)cc4)c4ncn(CC5CC5)c4n3)cc2)CC1` [Compound 23], the “pIC50 Exp” value is 7.000. In the case of `CC(C)CCn1cnc2c(Nc3cccc(F)c3)nc(Nc3ccc(N4CCN(CCO)CC4)cc3)nc21` [Compound 54], the “pIC50 Exp” value is 6.886. Take `CC(C)CCn1cnc2c(Nc3ccc(F)c(F)c3)nc(Nc3ccc(N4CCN(CCO)CC4)cc3)nc21` [Compound 55]: the “pIC50 Exp” value is listed as 5.754. With `CN1CCN(c2ccc(Nc3nc(Nc4ccccc4F)c4ncn(CC5CC5)c4n3)cc2)CC1` [Compound 14], the “pIC50 Exp” value is 5.378. For `CCCCCn1cnc2c(Nc3ccc(F)c(F)c3)nc(Nc3ccc(N4CCN(C)CC4)cc3)nc21` [Compound 37], the “pIC50 Exp” value is reported as 5.866.

For `CN1CCN(Cc2ccc(Nc3nc(Nc4ccc(F)c(F)c4)c4ncn(CC5CC5)c4n3)cc2)CC1` [Compound 48], the “pIC50 Exp” value is recorded as 6.649.

Regarding `CN1CCN(c2ccc(Nc3nc(Nc4ccc([N+](=O)[O-])cc4)c4ncn(CC5CC5)c4n3)cc2)CC1` [Compound 22], the “pIC50 Exp” value is 6.886. For `CN1CCN(c2ccc(Nc3nc(Nc4ccc(F)cc4)c4ncn(CC5CC5)c4n3)cc2F)CC1` [Compound 8], the “pIC50 Exp” value is given as 5.971.

As to `CN1CCN(c2ccc(Nc3nc(Nc4cccc(OC(F)(F)F)c4)c4ncn(CC5CC5)c4n3)cc2)CC1` [Compound 19], the “pIC50 Exp” value is reported as 5.939.

In the case of `CN1CCN(c2ccc(Nc3nc(Nc4cccc(F)c4)c4ncn(CC5CC5)c4n3)cc2)CC1` [Compound 3], the “pIC50 Exp” value is recorded as 7.398. On to `CN1CCN(c2ccc(Nc3nc(Nc4cccc(C(F)(F)F)c4)c4ncn(CC5CC5)c4n3)cc2)CC1` [Compound 18], for which the “pIC50 Exp” value is 5.75. As for `CCCCCCn1cnc2c(Nc3cccc(F)c3)nc(Nc3ccc(N4CCN(CCO)CC4)cc3)nc21` [Compound 57], the “pIC50 Exp” value is listed as 6.174. For `CN1CCN(c2ccc(Nc3nc(Nc4ccc(Cl)c(Cl)c4)c4ncn(CC5CC5)c4n3)cc2)CC1` [Compound 26], the “pIC50 Exp” value was 7.155. With `OCCN1CCN(c2ccc(Nc3nc(Nc4cccc(F)c4)c4ncn(CC5CC5)c4n3)cc2)CC1` [VII], the “pIC50 Exp” value is listed as 7.833. Take `COc1ccc(Nc2nc(Nc3ccc(N4CCN(C)CC4)c(F)c3)nc3c2ncn3CC2CC2)cc1` [Compound 11]: the “pIC50 Exp” value was 6.469. As for `CC(C)CCn1cnc2c(Nc3ccc(F)c(F)c3)nc(Nc3ccc(N4CCN(C)CC4)cc3)nc21` [Compound 43], the “pIC50 Exp” value is 5.642. For the compound `CN1CCN(c2ccc(Nc3nc(NCc4ccccc4)c4ncn(CC5CC5)c4n3)cc2)CC1` [Compound 49], the “pIC50 Exp” value is on record as 6.076. For `CCCCCCn1cnc2c(Nc3ccccc3)nc(Nc3ccc(N4CCN(C)CC4)cc3)nc21` [Compound 38], the “pIC50 Exp” value is on record as 5.008. For `CN1CCN(c2ccc(Nc3nc(Nc4cccc([N+](=O)[O-])c4)c4ncn(CC5CC5)c4n3)cc2)CC1` [Compound 20], the “pIC50 Exp” value was 6.770. For `CC(C)CCn1cnc2c(Nc3cccc(F)c3)nc(Nc3ccc(N4CCN(C)CC4)cc3)nc21` [Compound 34], the “pIC50 Exp” value was 4.301. For the compound `CCCCCCn1cnc2c(Nc3ccc(F)c(F)c3)nc(Nc3ccc(N4CCN(C)CC4)cc3)nc21` [Compound 40], the “pIC50 Exp” value is recorded as 4.469. `CN1CCN(Cc2ccc(Nc3nc(Nc4cccc(F)c4)c4ncn(CC5CC5)c4n3)cc2)CC1` [Compound 45]: the “pIC50 Exp” value was 6.744. For the compound `CC(C)CCn1cnc2c(Nc3ccccc3)nc(Nc3ccc(N4CCN(CCO)CC4)cc3)nc21` [Compound 53], the “pIC50 Exp” value is 5.907. With `Cc1cccc(Nc2nc(Nc3ccc(N4CCN(C)CC4)cc3)nc3c2ncn3CC2CC2)c1` [Compound 16], the “pIC50 Exp” value is given as 7.000.

`CCCCCCn1cnc2c(Nc3ccccc3)nc(Nc3ccc(N4CCN(CCO)CC4)cc3)nc21` [Compound 56]: the “pIC50 Exp” value is 6.081. In the case of `CN1CCN(c2ccc(Nc3nc(Nc4cccc(Cl)c4)c4ncn(CC5CC5)c4n3)cc2)CC1` [Compound 17], the “pIC50 Exp” value is given as 6.921. For the compound `CN1CCN(c2ccc(Nc3nc(Nc4ccc(F)c(Cl)c4)c4ncn(CC5CC5)c4n3)cc2)CC1` [Compound 25], the “pIC50 Exp” value is 6.569. Turning to `CN1CCN(C(=O)c2ccc(Nc3nc(Nc4cccc(F)c4)c4ncn(CC5CC5)c4n3)cc2)CC1` [Compound 30], the “pIC50 Exp” value is 6.244.

Consider `CN1CCN(c2ccc(Nc3nc(Nc4ccccc4)c4ccn(CC5CC5)c4n3)cc2)CC1` [Compound 44], for which the “pIC50 Exp” value is recorded as 4.206. As to `CN1CCN(c2ccc(Nc3nc(Nc4cccc(F)c4)c4ncn(CC5CC5)c4n3)cc2F)CC1` [Compound 9], the “pIC50 Exp” value is recorded as 6.222. For the compound `CCCCCCCCn1cnc2c(Nc3ccc(F)c(F)c3)nc(Nc3ccc(N4CCN(C)CC4)cc3)nc21` [Compound 32], the “pIC50 Exp” value was 4.063. With `CCCCCCn1cnc2c(Nc3ccc(F)c(F)c3)nc(Nc3ccc(N4CCN(CCO)CC4)cc3)nc21` [Compound 58], the “pIC50 Exp” value is on record as 5.775. As for `COc1cc(Cl)ccc1Nc1nc(Nc2ccc(N3CCN(C)CC3)cc2)nc2c1ncn2CC1CC1` [Compound 6], the “pIC50 Exp” value is 6.097. Turning to `CN1CCN(c2ccc(Nc3nc(NC4CCCCC4)c4ncn(CC5CC5)c4n3)cc2)CC1` [Compound 47], the “pIC50 Exp” value is 4.956.

Take `CC(C)CCn1cnc2c(Nc3ccccc3)nc(Nc3ccc(N4CCN(C)CC4)cc3)nc21` [Compound 36]: the “pIC50 Exp” value is reported as 5.750. Consider `CN1CCN(c2ccc(Nc3nc(N)c4ncn(CC5CC5)c4n3)cc2)CC1` [Compound 46], for which the “pIC50 Exp” value is recorded as 5.403. Regarding `OCCN1CCN(c2ccc(Nc3nc(Nc4ccc(F)c(F)c4)c4ncn(CC5CC5)c4n3)cc2)CC1` [Compound 52], the “pIC50 Exp” value is on record as 7.703. Take `CN1CCN(c2ccc(Nc3nc(Nc4ccccc4)c4ncn(CC5CC5)c4n3)cc2F)CC1` [Compound 7]: the “pIC50 Exp” value was 6.237. For `CCCCCn1cnc2c(Nc3ccccc3)nc(Nc3ccc(N4CCN(C)CC4)cc3)nc21` [Compound 35], the “pIC50 Exp” value is reported as 5.910. Take `CN1CCN(c2ccc(Nc3nc(Nc4cccc(C#N)c4)c4ncn(CC5CC5)c4n3)cc2)CC1` [Compound 15]: the “pIC50 Exp” value is reported as 7.155. In the case of `COc1cc(Nc2nc(Nc3ccc(N4CCN(C)CC4)cc3)nc3c2ncn3CC2CC2)c(OC)cc1Cl` [Compound 5], the “pIC50 Exp” value was 4.444.

As to `CCCCCn1cnc2c(Nc3cccc(F)c3)nc(Nc3ccc(N4CCN(C)CC4)cc3)nc21` [Compound 42], the “pIC50 Exp” value was 6.187. As to `CN1CCN(c2ccc(Nc3nc(Nc4ccc(OC(F)(F)F)c([N+](=O)[O-])c4)c4ncn(CC5CC5)c4n3)cc2)CC1` [Compound 28], the “pIC50 Exp” value was 6.357. In the case of `CN1CCN(c2ccc(Nc3nc(Nc4ccc(Cl)c(F)c4)c4ncn(CC5CC5)c4n3)cc2)CC1` [Compound 27], the “pIC50 Exp” value is on record as 6.699.

The same series, now with this note: earlier purines of the group; cited from earlier work.
Regarding `OCCN1CCN(c2ccc(Nc3nc(Nc4cccc(F)c4)c4ncn(CC5CC5)c4n3)cc2)CC1` [VII], the IC50 (as a rule, the midpoint of a concentration-inhibition curve) was 15 nM. As to `CN1CCN(c2ccc(Nc3nc(Nc4cccc(C#N)c4)c4ncn(CC5CC5)c4n3)cc2)CC1` [X], the IC50 is 70 nM. In the case of `CCCCCCCCn1cnc2c(Nc3ccc(F)c(F)c3)nc(Nc3ccc(N4CCN(C)CC4)cc3)nc21` [Compound 32], the IC50 is 86500 nM.
